From patent US9056865B2, “Pyridine-2-derivatives as smoothened receptor modulators” (Pfizer Inc., priority 2010, dated 2015)

What was measured:
[1] = molecular target: human Smo (Homo sapiens (Human), UniProt Q99835); experiment: Smo radioligand competition binding assay; conditions: for inhibition at 0.05 µM: 0.05 μM test compound, read-out: Smo % inh. @ 0.05 μM
Protocol: Smo Radioligand Competition Binding Assay
Membranes were prepared from a stable cell line created in HEK293FlpIn-TetR cells (Invitrogen) using Flp recombinase-mediated insertion of the pSecTag-FRT/V5-His vector containing a cDNA encoding amino acids […] of human Smo fused to the murine Igk leader sequence to produce a cell surface expressed Smo 181-781 protein. Hygromycin-resistant clones were obtained and stained for LacZ expression (no expression indicates a correct knock-in of fusion cDNA). LacZ-negative cells were analyzed for binding tritiated Smo antagonists. For membrane preparation, the HEK293 cells expressing Smo 181-781 were grown to 90% confluence in nine to fifteen 245 mm×245 mm×22 mm dishes, washed with Dulbecco's PBS (15 mL per dish) and harvested via scraping in 10 mL of DPBS. The cells were collected and centrifuged at 1500 rpm (400×g) for 10 min at 4° C. The cell pellets were re-suspended in 40 mL of cold DPBS and washed by centrifugation at 2300 rpm (950×g max) for 10 minutes at 4° C. The supernatant was aspirated and the cell pellet was snap frozen in a methanol/dry ice bath and stored at −70° C. For membrane preparation, 15 mL of Membrane Preparation Buffer (50 mM Tris-HCl pH 7.5, 250 mM sucrose with Roche complete protease cocktail tablets) was added to the tube containing the cell pellet, then cells are rapidly thawed, and homogenized using an Ultra-Turrax T8 (IKA Labortechnik) set on “6” for 15 seconds for 5-6 times in icy water bath. This homogenate was diluted up to 50 mL using Membrane Preparation Buffer and centrifuged at 35,000 rpm in a Beckman Ti45 rotor (140,000×g) for 35 minutes at 4° C. followed by aspiration of the supernatant and re-suspension of the pellet in 5 mL of Assay Buffer (50 mM Tris-HCl pH 7.5, 100 mM NaCl, 25 mM MgCl2, 1 mM EDTA, and 0.1% protease free bovine serum albumin). The re-suspended pellet was then homogenized in a glass tissue grinder. The re-suspended membranes were aliquoted (0.5 mL aliquots), snap frozen and stored at −70° C. Total protein in the membrane preparation was determined using the Pierce BCA protein assay (Pierce Chemical).
For the binding competition assay, 100 μL of Assay Buffer was added to all the wells of a 96 well GF/B filter plate (Millipore MultiScreen-HTS-FB cat# MSFBN6B50) for 10 minutes to pre-wet the filter prior to evacuation of the buffer (8 inches Hg for 8 seconds). To the pre-wet wells is added: 20 μL of Assay Buffer, 10 μL diluted test agent, 20 μL of a tritiated Smo antagonist (15 nM stock solution), and 50 μL of membrane preparation (40 μg total protein per well). The plates are sealed and mixed at room temperature for 5 min, incubated at room temperature for 2 hours, then washed 5 times with 100 μL/each of wash buffer and vacuum dried for 8 seconds at 8 inches Hg. The plate is then dried for one hour in a 60° C. oven prior to the addition of 45 μL of Microscint 20 (Packard, #6013621) to each well and incubation at RT for 30 minutes to 1 hour. The plate is counted in a TopCount scintillation counter (Perkin Elmer).
Data analysis uses Excel for % Inhibition and Graphpad Prism for IC50 calculation. Total binding (TB, in the absence of inhibitors)=average of tritiated Smo antagonist 3 nM+Smo membrane (40 μg/wells (approx 5000-7000 CPM)). Non-specific binding (NSB)=average of tritiated Smo antagonist (3 nM)+cold Smo antagonist (30 μM)+Smo membrane (approx 600-1200 CPM). Specific binding (SB)=(total binding−non-specific binding). % Inhibition=[1−(compound Specific binding/control Specific binding)]×100%. IC50 is calculated by fitting the data to the four parameter sigmoidal dose-response curve (variable slope) Y=Bottom+(Top-Bottom)/(1+10^((LogEC50−X)*HillSlope)). X is the logarithm of the inhibitor concentration. Y is the response; Y starts at Bottom and goes to Top with a sigmoid shape.

[2] = tested on: Gli-Luc/MEF cells; experiment: Gli-Luc/MEF assay; format: cell-based, mouse; conditions: Mus musculus, MEF; Shh-stimulated luciferase, 48 hours
Protocol: The Gli-Luc/MEF cells obtained from Gli-Luc transgenic mice contain a luciferase reporter gene under the control of the Gli response element. Luciferase activity stimulated with Sonic hedgehog ligand was inhibited by Smo inhibitors, and IC50 was subsequently calculated.
Plates were incubated at 37° C. and 5% CO2 overnight. On day two, cells were dosed with test compounds at a final concentration ranging from 3 μM to 50 μM at a 3-time series dilution. Immediately after dosing cells with compounds, recombinant mouse sonic hedgehog (Shh, R&D Systems 464-SH) was added to a final concentration of 2 μg/mL. The cells were incubated with compounds and Shh for 48 hours at 37° C. and 5% CO2. Luciferase assays were conducted on Day 4 using the Bright-Glo Luciferase assay system (Promega E2620) according to Promega's protocol. Briefly, Bright-Glo luciferase reagent was made up and 25 μL were added to each well of the 384-well plate containing media. Plates were kept at room temperature for 5 minutes, and then read on an Envision Luminescence plate reader (Perkin-Elmer). IC50 of the inhibition was calculated by using GraphPad Prism.

Sequence of human Smo (Q99835 181-787): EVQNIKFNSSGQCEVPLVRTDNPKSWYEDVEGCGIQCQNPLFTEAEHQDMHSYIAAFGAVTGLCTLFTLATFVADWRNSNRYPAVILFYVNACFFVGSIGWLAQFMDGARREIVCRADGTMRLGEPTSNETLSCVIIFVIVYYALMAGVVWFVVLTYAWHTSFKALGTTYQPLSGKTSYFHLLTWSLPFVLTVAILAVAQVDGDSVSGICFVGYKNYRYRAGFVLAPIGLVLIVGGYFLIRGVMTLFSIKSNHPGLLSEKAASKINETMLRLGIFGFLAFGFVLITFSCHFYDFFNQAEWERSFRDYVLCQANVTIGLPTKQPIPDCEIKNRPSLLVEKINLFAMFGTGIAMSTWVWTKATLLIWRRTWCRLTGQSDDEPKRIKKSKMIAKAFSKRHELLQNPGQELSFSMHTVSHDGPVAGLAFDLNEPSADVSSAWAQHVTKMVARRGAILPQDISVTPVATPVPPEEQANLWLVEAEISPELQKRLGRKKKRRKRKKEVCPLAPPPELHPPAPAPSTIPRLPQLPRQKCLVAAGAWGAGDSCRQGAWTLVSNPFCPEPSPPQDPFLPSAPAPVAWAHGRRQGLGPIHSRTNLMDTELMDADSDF

Compound	IC50 [1]	inhibition at 0.05 µM [1]	IC50 [2]
Cc1cccnc1-c1cc(N2CCC(OCC(C)C)CC2)ncc1Cl [Example A-38, 5′-chloro-2′-(4-isobutoxypiperidin-1-yl)-3-methyl-2,4′-bipyridine]	164 nM	78.5%	60.2 nM
Cc1cccnc1-c1cc(N2CCC(NS(C)(=O)=O)CC2)ncc1Cl [Example A-8, N-[1-(5′-chloro-3-methyl-2,4′-bipyridin-2′-yl)piperidin-4-yl]methanesulfonamide]	18.7 nM	92%	39.2 nM
CS(=O)(=O)NC1CCN(c2cc(-c3ncccc3Cl)c(Cl)cn2)CC1 [Example A-10, N-[1-(3,5′-dichloro-2,4′-bipyridin-2′-yl)piperidin-4-yl]methanesulfonamide]	32.1 nM	75%	209 nM
Cc1cnc(-c2ccnc(N3CCN(C(=O)CCS(C)(=O)=O)CC3)c2)c(C)c1 [Example A-141, 1-[4-(3,5-dimethyl-2,4′-bipyridin-2′-yl)piperazin-1-yl]-3-(methylsulfonyl)propan-1-one]	11.6 nM	96.3%	8.42 nM
Cc1cnc(-c2cc(N3CCN(C(=O)CCO)CC3)ncc2Cl)c(C)c1 [Example A-106, 3-[4-(5′-chloro-3,5-dimethyl-2,4′-bipyridin-2′-yl)piperazin-1-yl]-3-oxopropan-1-ol]	65.7 nM	86%	36.5 nM
CS(=O)(=O)NC1CCN(c2ccc(Cl)c(-c3ccccn3)n2)CC1 [Example A-15, N-[1-(3-chloro-2,2′-bipyridin-6-yl)piperidin-4-yl]methanesulfonamide]	34.3 nM	83%	78.5 nM
Cc1cccnc1-c1cc(N2CCC(C(=O)NCCc3nc4cccnc4n3C)CC2)ncc1Cl [Example A-73, 1-(5′-chloro-3-methyl-2,4′-bipyridin-2′-yl)-N-[2-(3-methyl-3H-imidazo[4,5-b]pyridin-2-yl)ethyl]piperidine-4-carboxamide]	154 nM	76.1%	55.8 nM
Cc1cccnc1-c1nc(N2CCC(NS(C)(=O)=O)CC2)ccc1Cl [Example A-16, N-[1-(3-chloro-3′-methyl-2,2′-bipyridin-6-yl)piperidin-4-yl]methanesulfonamide]	20.6 nM	97.8%	14.5 nM
CS(=O)(=O)NC1CCN(c2ncc(Cl)c(-c3ccccn3)n2)CC1 [Example A-45, N-[1-(5-chloro-4-pyridin-2-ylpyrimidin-2-yl)piperidin-4-yl]methanesulfonamide]	83.7 nM	80.1%	58.2 nM
COC(=O)N1CCN(c2cc(-c3ncc(C)cc3C)c(Cl)cn2)CC1 [Example A-101, methyl 4-(5′-chloro-3,5-dimethyl-2,4′-bipyridin-2′-yl)piperazine-1-carboxylate]	72.4 nM	89%	30.2 nM
Cc1cccnc1-c1cc(N2CCC(C(=O)N[C@H]3CCN(S(C)(=O)=O)C3)CC2)ncc1Cl [Example A-60, 1-(5′-chloro-3-methyl-2,4′-bipyridin-2′-yl)-N-[(3S)-1-(methylsulfonyl)pyrrolidin-3-yl]piperidine-4-carboxamide]	67 nM	83.8%	57.4 nM
Cc1cccnc1-c1cc(N2CCC(NCCS(C)(=O)=O)CC2)ncc1Cl [Example A-49, 1-(5′-chloro-3-methyl-2,4′-bipyridin-2′-yl)-N-[2-(methylsulfonyl)ethyl]piperidin-4-amine]	39 nM	87%	44 nM
Cc1cccnc1-c1cc(N2CCC(C(=O)NCCS(C)(=O)=O)CC2)ncc1Cl [Example A-67, 1-(5′-chloro-3-methyl-2,4′-bipyridin-2′-yl)-N-[2-(methylsulfonyl)ethyl]piperidine-4-carboxamide]	217 nM	70.4%	164 nM
Cc1cnc(-c2cc(N3CCC(NS(=O)(=O)C4CC4)CC3)ncc2Cl)c(C)c1 [Example A-127, N-[1-(5′-chloro-3,5-dimethyl-2,4′-bipyridin-2′-yl)piperidin-4-yl]cyclopropanesulfonamide]	11.5 nM	97.8%	5.03 nM
Cc1cc(F)cnc1-c1cc(N2CCN(C(=O)CCS(C)(=O)=O)CC2)ncc1Cl [Example A-151, 1-[4-(5′-chloro-5-fluoro-3-methyl-2,4′-bipyridin-2′-yl)piperazin-1-yl]-3-(methylsulfonyl)propan-1-one]	–	101%	8.76 nM
Cc1cccnc1-c1cc(N2CCC(C(=O)N3CCC(Nc4ccccn4)CC3)CC2)ncc1Cl [Example A-56, N-(1-{[1-(5′-chloro-3-methyl-2,4′-bipyridin-2′-yl)piperidin-4-yl]carbonyl}piperidin-4-yl)pyridin-2-amine]	106 nM	80.5%	41.6 nM
Cc1cccnc1-c1cc(N2CCC(NC(=O)CCS(C)(=O)=O)CC2)ncc1Cl [Example A-95, N-[1-(5′-chloro-3-methyl-2,4′-bipyridin-2′-yl)piperidin-4-yl]-3-(methylsulfonyl)propanamide]	37 nM	94%	32 nM
Cc1cnc(-c2cc(N3CCC(NC(=O)CN(C)C)CC3)ncc2Cl)c(C)c1 [Example A-114, N-(1-(5′-chloro-3,5-dimethyl-[2,4′-bipyridin]-2′-yl)piperidin-4-yl)-2-(dimethylamino)acetamide]	19.2 nM	94.5%	3.86 nM
CC(=O)N1CCN(c2ncc(Cl)c(-c3ncccc3C)n2)CC1 [Example A-26, 2-(4-acetylpiperazin-1-yl)-5-chloro-4-(3-methylpyridin-2-yl)pyrimidine]	359 nM	69.9%	189 nM
CCOC(=O)N1CCN(c2cc(-c3ncccc3C)c(Cl)cn2)CC1 [Example A-39, ethyl 4-(5′-chloro-3-methyl-2,4′-bipyridin-2′-yl)piperazine-1-carboxylate]	109 nM	80.7%	48.5 nM
Cc1cccnc1-c1nc(N2CCC(CS(C)(=O)=O)CC2)ncc1Cl [Example A-97, 5-chloro-4-(3-methylpyridin-2-yl)-2-{4-[(methylsulfonyl)methyl]piperidin-1-yl}pyrimidine]	30 nM	95.4%	13.3 nM
